Assay results from ChEMBL document CHEMBL5532734, “Lysosomal Degradation of Extracellular Targets: Innovations and Implications” (ACS Med Chem Lett, 2024).

target: T1, Sortilin (Homo sapiens, UniProt Q99523); test: Binding affinity to 6-His tagged sortilin (unknown origin) assessed as equilibrium dissociation constant by MST analysis
T1 sequence (Q99523 whole entry): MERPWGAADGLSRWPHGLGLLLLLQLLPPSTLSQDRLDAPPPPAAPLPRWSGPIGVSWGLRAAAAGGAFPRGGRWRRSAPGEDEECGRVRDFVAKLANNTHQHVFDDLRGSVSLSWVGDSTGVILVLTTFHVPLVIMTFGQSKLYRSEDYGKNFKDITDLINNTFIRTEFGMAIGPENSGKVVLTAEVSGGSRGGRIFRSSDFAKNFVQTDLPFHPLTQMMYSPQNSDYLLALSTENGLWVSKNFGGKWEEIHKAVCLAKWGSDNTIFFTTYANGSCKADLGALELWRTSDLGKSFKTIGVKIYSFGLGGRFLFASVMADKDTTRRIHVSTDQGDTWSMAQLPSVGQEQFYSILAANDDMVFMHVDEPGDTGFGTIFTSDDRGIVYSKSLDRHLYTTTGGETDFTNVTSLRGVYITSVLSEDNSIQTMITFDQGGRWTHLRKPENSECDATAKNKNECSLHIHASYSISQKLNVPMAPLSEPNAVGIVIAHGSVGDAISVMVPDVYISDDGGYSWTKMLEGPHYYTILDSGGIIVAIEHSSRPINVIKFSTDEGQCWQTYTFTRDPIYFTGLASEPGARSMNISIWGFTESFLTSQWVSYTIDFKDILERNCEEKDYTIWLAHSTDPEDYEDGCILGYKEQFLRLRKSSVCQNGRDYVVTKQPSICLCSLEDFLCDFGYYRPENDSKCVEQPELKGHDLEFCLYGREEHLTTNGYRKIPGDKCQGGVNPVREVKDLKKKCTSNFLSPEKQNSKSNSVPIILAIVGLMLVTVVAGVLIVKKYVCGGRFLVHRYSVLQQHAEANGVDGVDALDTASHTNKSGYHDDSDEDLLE

SMILES	Kd [nM]
CC(C)(C)CC[C@H](NC(=O)c1ccc(Oc2cccc(OCCOCCOCCOCCOCCOCCOCCNC(=O)CCC[C@@H]3SC[C@@H]4NC(=O)N[C@@H]43)c2)nc1)C(=O)O	1
C[C@@H]1CN(c2ncc(-c3ccc4c(n3)N(Cc3cccnc3C#N)C(C)(C)C4=O)cn2)CCN1C(=O)COCCCCCCCCNC(=O)c1cccc(Oc2ccc(C(=O)N[C@@H](CCC(C)(C)C)C(=O)O)cn2)c1	< 1
CC(C)(C)CC[C@H](NC(=O)c1ccc(Oc2cccc(C(=O)NCCOCCOCCOCCOCCOCCOc3ncc(-c4ccc5c(n4)N(Cc4cccnc4C#N)C(C)(C)C5=O)cn3)c2)nc1)C(=O)O	< 1

Results, then the molecule that gave them:

Kd [nM]	SMILES
< 1	CC(C)(C)CC[C@H](NC(=O)c1ccc(Oc2cccc(C(=O)NCCOCCOCCOCCOCCOCCNc3ncc(-c4ccc5c(n4)N(Cc4cccnc4C#N)C(C)(C)C5=O)cn3)c2)nc1)C(=O)O
< 1	C[C@@H]1CN(c2ncc(-c3ccc4c(n3)N(Cc3cccnc3C#N)C(C)(C)C4=O)cn2)CCN1C(=O)CNC(=O)CCCCCCCCCNC(=O)c1cccc(Oc2ccc(C(=O)N[C@@H](CCC(C)(C)C)C(=O)O)cn2)c1
< 1	C[C@@H]1CN(c2ncc(-c3ccc4c(n3)N(Cc3cccnc3C#N)C(C)(C)C4=O)cn2)CCN1C(=O)COCCCCNC(=O)c1cccc(Oc2ccc(C(=O)N[C@@H](CCC(C)(C)C)C(=O)O)cn2)c1
